Test results from PMC4493701, “Quantitative and qualitative analysis of the novel antitumor 1,3,4-oxadiazole derivative (GLB) and its metabolites using HPLC-UV and UPLC-QTOF-MS” (Scientific Reports, 2015).

Tests used:
[1] = Identification of GLB metabolites in rat plasma by UPLC-ESI-QTOF-MS; type: in vivo; conditions: rat plasma after oral GLB 100 mg/kg; tentative, no metabolite standards
Source text: Because of two unknown chromatographic peaks were detected by HPLC after oral dose GLB in rat plasma, their structures were further identified and the metabolic pathways were investigated using UPLC-MS method. […] Based on the chromatographic retention times and mass spectral patterns (m/z and mass errors) between the parent drug and their product ions, the structures of metabolites of GLB could be estimated, in spite of lacking standards of metabolites. […] Metabolites M1 and M2 were detected at shorter retention times (2.56 and 2.86 min, respectively), and heavier molecular ions as m/z 529 (497 + 32 Da) and 513 (497 + 16 Da), respectively.
Furthermore, under the tandem mass spectrometry positive scan mode condition, the parent compound GLB was detected as protonated molecular ions at m/z 499 ([M+H]+) and sodium adduct (520, [M+Na]+), and fragment ion m/z 441, respectively (Fig. 3C). The metabolite M1 was detected as protonated molecular ions at m/z 529 ([M+H]+) and sodium adduct (m/z […], [M+Na]+), and fragment ions m/z 457, 449, 435 and 401, respectively. […]
The structure identifications of GLB and its metabolites were analyzed using a validated ultra-performance liquid chromatography- electrospray ionization-quadrupole-time-of-flight mass spectrometry (UPLC-ESI-QTOF-MS) method, as described in previous publications. […]

[2] = Stability of GLB in rat plasma QC samples under storage and processing conditions (HPLC-UV); type: in vitro ADME; conditions: for Measured concentration / Accuracy (RE, %): rat plasma
Method: The stability of GLB in rat plasma was determined by analyzing QC samples that was stored in different conditions, including: 1) room-temperature, 2) light irradiation for 24 hours, 3) post-preparation (the extracted samples stored at 4 °C for 48 hours and one week), 4) three cycles of freeze and thaw (freezing at −20 °C for 24 hours and thawing at room temperature), 5) long-term stored in −20 °C for up to 2 weeks, 1 month and 3 months, respectively. All the QC samples for stability assessment were analyzed in triplicate.
Under manifold storage and processing conditions, the stability of GLB in rat plasma was evaluated by analyzing three replicates for QC samples at 0.025, 0.5 and 4 μg/mL.
Calibration standard solutions were prepared by adding 25 μL of working standard solutions of GLB and IS into 375 μL blank rat plasma to achieve final concentrations of GLB of 0.01, 0.025, 0.05, 0.1, 0.5, 1, 4 and 8 μg/mL, and IS concentration of 1 μg/mL, respectively. QC samples were prepared in the same way using the low, medium and high concentrations of 0.025, 0.5 and 4 μg/mL, respectively.

[3] = test system: human carcinoma cell lines including uterine cervix cancer cells, pulmonary adenocarcinoma cells, and prostate cancer cells (PC-3M); set-up: method as in earlier work; conditions: multiple human carcinoma cell lines; cited from earlier work
[4] = test system: thymidine phosphorylase; conditions: cited from earlier work
[5] = Freezing storage −20 °C for 1 month, actual concentration 0.025 μg/mL
[6] = Freezing storage −20 °C for 2 weeks, actual concentration 0.025 μg/mL
[7] = Freezing storage −20 °C for 2 weeks, actual concentration 0.5 μg/mL
[8] = Freezing storage −20 °C for 2 weeks, actual concentration 4 μg/mL
[9] = Light and room temperature for 24 hours, actual concentration 0.025 μg/mL
[10] = Light and room temperature for 24 hours, actual concentration 0.5 μg/mL
[11] = Light and room temperature for 24 hours, actual concentration 4 μg/mL
[12] = Post-preparative, 4 °C for 1 week, actual concentration 0.025 μg/mL
[13] = Post-preparative, 4 °C for 1 week, actual concentration 0.5 μg/mL
[14] = Post-preparative, 4 °C for 1 week, actual concentration 4 μg/mL
[15] = Post-preparative, 4 °C for 48 hours, actual concentration 0.025 μg/mL
[16] = Post-preparative, 4 °C for 48 hours, actual concentration 0.5 μg/mL
[17] = Post-preparative, 4 °C for 48 hours, actual concentration 4 μg/mL

In the case of CC(=O)N1N=C(c2ccc(Br)cc2)OC1(C1OC(C)(C)OC1C(=O)O)C1(O)COC(C)(C)O1 (centres unmarked) [M1], the “Identification (metabolic modification of GLB)” value [1] is reported as “Di-hydroxylation”.
In the case of CC(=O)N1N=C(c2ccc(Br)cc2)OC12C1OC(C)(C)OC1COC21COC(C)(C)O1 (centres unmarked) [GLB, Fructose-based 3-acetyl-2,3-dihydro-1,3,4-oxadiazole], the “Stability in rat plasma” value ([2]; 24 hours, 48 hours and 1 week at 4 °C, 2 weeks, 1 month and 3 months at −20 °C, three freeze-thaw cycles) is reported as “stable”, the Measured concentration ([2]; Freeze-thawing 3 cycles (−20 °C), actual concentration 0.025 μg/mL) is reported as 0.025 ± 0.001 µg/mL and the Measured concentration ([2]; Freeze-thawing 3 cycles (−20 °C), actual concentration 0.5 μg/mL) is reported as 0.467 ± 0.036 µg/mL. The Measured concentration ([2]; Freeze-thawing 3 cycles (−20 °C), actual concentration 4 μg/mL) was 3.732 ± 0.227 µg/mL, the “Accuracy (RE, %)” value [2, 5] was 8.66% and the Measured concentration [2, 5] was 0.027 ± 0.002 µg/mL. For the same compound, the Measured concentration ([2]; Freezing storage −20 °C for 1 month, actual concentration 0.5 μg/mL) was 0.490 ± 0.015 µg/mL, the Measured concentration ([2]; Freezing storage −20 °C for 1 month, actual concentration 4 μg/mL) was 4.097 ± 0.213 µg/mL and the “Accuracy (RE, %)” value [2, 6] was 8.17%. For the same compound, the Measured concentration [2, 6] was 0.027 ± 0.001 µg/mL, the “Accuracy (RE, %)” value [2, 7] was 7.10% and the Measured concentration [2, 7] was 0.535 ± 0.009 µg/mL. The “Accuracy (RE, %)” value [2, 8] was 9.84%, the Measured concentration [2, 8] was 4.393 ± 0.090 µg/mL and the Measured concentration ([2]; Freezing storage −20 °C for 3 months, actual concentration 0.025 μg/mL) was 0.023 ± 0.002 µg/mL. The Measured concentration ([2]; Freezing storage −20 °C for 3 months, actual concentration 0.5 μg/mL) was 0.487 ± 0.003 µg/mL, the Measured concentration ([2]; Freezing storage −20 °C for 3 months, actual concentration 4 μg/mL) was 3.918 ± 0.063 µg/mL and the “Accuracy (RE, %)” value [2, 9] was 4.17%. The Measured concentration [2, 9] was 0.026 ± 0.002 µg/mL, the “Accuracy (RE, %)” value [2, 10] was −2.79% and the Measured concentration [2, 10] was 0.486 ± 0.027 µg/mL. For the same compound, the “Accuracy (RE, %)” value [2, 11] was −1.94%, the Measured concentration [2, 11] was 3.922 ± 0.055 µg/mL and the “Accuracy (RE, %)” value [2, 12] was 3.83%. For the same compound, the Measured concentration [2, 12] was 0.026 ± 0.001 µg/mL, the “Accuracy (RE, %)” value [2, 13] was −14.4% and the Measured concentration [2, 13] was 0.428 ± 0.010 µg/mL. The “Accuracy (RE, %)” value [2, 14] was −8.30%, the Measured concentration [2, 14] was 3.668 ± 0.219 µg/mL and the “Accuracy (RE, %)” value [2, 15] was 5.31%. The Measured concentration [2, 15] was 0.026 ± 0.001 µg/mL, the “Accuracy (RE, %)” value [2, 16] was 5.62% and the Measured concentration [2, 16] was 0.528 ± 0.007 µg/mL. For the same compound, the “Accuracy (RE, %)” value [2, 17] was 5.83%, the Measured concentration [2, 17] was 4.233 ± 0.196 µg/mL and the Effect on proliferation [3] was “inhibited proliferation”. The Thymidine phosphorylase inhibition [4] was “thymidine phosphorylase inhibitor”.
